Laboratory results from US8481005B2, “Methods to prevent cytotoxicity using N-acetyl-cysteine” (priority 2006, dated 2013).

Columns and labels:
[1] = system: HEp2 cells co-cultured with PBMCs; experiment: IL-6 in co-cultures of HEMA/NAC treated HEp2 cells with healthy donor PBMCs; format: cell-based, human
Method: HEp-2 cells obtained from ATCC were cultured in DMEM supplemented with 10% FBS, 1% sodium pyruvate, 1% non essential amino acids and 1% antibiotic-antimycotic solution. […] The cells were trypsinized and washed 4 times with 1×PBS before they were co-cultured with PBMCs obtained from a healthy individual. A 4:1 ratio of effector to target cells (PBMC:HEp2) were used in these cultures. PBMCs were treated with and without IL-2 before they were co-cultured with HEp-2 cells. The supernatants were then removed from the co-cultures after an overnight incubation and analyzed using the FAST QUANT multiplex cytokine array kit to determine the levels of secreted cytokines.

[2] = system: UCLA-2 cells (a primary oral tumor line); experiment: VEGF release from UCLA-2 cells (Table 4); format: cell-based
Method: The cells were then grown in media containing β-glycerophosphate and ascorbic acid until they reached confluency. […] Supernatants were measured for VEGF release.

RAW 264.7 cells = system: RAW 264.7 cells
Method: (§1) RAW 264.7 cells (murine macrophages) were obtained from American Type Culture Collection (ATCC) and were cultured in a 5% CO2 atmosphere in DMEM (purchased from Cellgro (Herndon, Va.)) containing 10% FCS, 1% penicillin-streptomycin, 1% sodium pyruvate, 1% non essential amino acids and 1% glutamine. THP-1 cells (human macrophages) were obtained from ATCC and were cultured under the same conditions, with RMPI 1640 containing 10% FCS, 1% penicillin-streptomycin, 1% sodium pyruvate and 1% non essential amino acids.
(§2) Dose-dependent apoptosis was measured by FITC-Annexin V/Propidium iodide kits (Miami, Fla.). Cells were plated in six-well/twelve well plates. […] Cells were washed twice with PBS and centrifuged at about 2000 rpm for about 5 minutes and resuspended in binding buffer (provided in the kit) along with FITC-Annexin V/Propidium iodide (PI) according to manufacturer's instructions. After incubating on ice (light protected) for about 15 minutes, samples were analyzed by flow cytometry. Flow cytometric analysis was performed using a flow cytometer equipped with a single 488-nm argon laser. Dead cell fragments were gated out by forward and side scatter analysis. […] Forward and side scatter were used to gate out cellular fragments.
(§3) After an overnight incubation, the levels of cell death were determined using PI staining of ethanol fixed cells. Specifically, cells were washed twice with PBS before they were treated with 70% ethanol (250 μl). Ethanol was added dropwise and then the cells were incubated on ice for 30 minutes. The cells were then washed twice with PBS and resuspended in 1 ml PBS to which PI at a final concentration of 1 mg/ml was added. The samples were then analyzed using the flow cytometer.
(§4) In FIGS. 2A and 2B, the numbers in each histogram represent the percentage of Sub Go/G1 fragmented cell populations. Ten thousand events were analyzed for each sample.

THP-1 cells = system: THP-1 cells
Method: as §1, §2, §3, §4

Jurkat cells = experiment: Mitochondrial membrane potential in Jurkat cells (DiOC6); format: cell-based; conditions: HEMA alone or with NAC 20 mM
Method: The membrane potential was assessed by staining with DiOC6 which is a positively charged dye. At low concentrations, it accumulates in mitochondria due to their large negative membrane potential. However when the membrane potential is disrupted there is less binding of this dye.

caspases 9 and 3 = experiment: Full length caspases 9 and 3 in HEp2 cells (Western blot); format: cell-based; conditions: 0.0164M HEMA about 18 hours
Method: Protein concentrations were determined by a DC protein assay kit (Bio-Rad, Hercules, Calif.). An aliquot of total protein lysate was diluted in an equal volume of about 2% SDS sample buffer, about 6.2 mM Tris (pH about 6.8), about 2.3% SDS, about 5% mercaptoethanol, about 10% glycerol, and about 0.02% bromophenol blue and boiled for about 10 minutes. The cell lysates (40 μg) were then electrophoresed on 12% SDS-PAGE gels and were subjected to Western blot analysis. Levels of β-tubulin and actin were used to normalize the protein expression. Relative concentrations were assessed by densitometric analysis of digitized autographic images. The anti-actin and anti-β-tubulin monoclonal antibodies were purchased from Santa Cruz Biotechnology (Santa Cruz, Calif.) and from Calbiochem (San Francisco, Calif.) respectively. The polyclonal antibodies anti-caspase 3 and anti-caspase 9, were obtained from Cell Signaling (San Diego, Calif.). […] Decreased Processing and Cleavage of Caspase 3 in the Presence of NAC

PBMCs = PBMCs treated with HEMA or CDDP, FITC-Annexin V and PI; format: cell-based; conditions: about 18 hours, highest concentration of CDDP, HEMA 0.0164M-0.00164M
Description: The cells were then stained with FITC-Annexin V and PI according to the manufacturer's protocol.

active caspase 3 = experiment: Active caspase 3 staining in PBMCs treated with HEMA or CDDP; format: cell-based; conditions: HEMA 0.0164M
[3] = system: human dental pulp stromal cells; experiment: ALP staining of human dental pulp stromal cells; format: cell-based; conditions: after 7 days of incubation; NAC 20 mM
Method: Following the experiment described above in human dental pulp stromal cells, treatments were carried out as described above with the levels of ALP staining representing maturation/differentiation of dental pulp stromal cells. This staining was performed after 7 days of incubation. […] Odontoblasts

[4] = system: osteopontin (OPN) and osteocalcin (OCN); experiment: RT-PCR for osteopontin and osteocalcin in rat dental pulp stromal cells; format: cell-based; conditions: media containing ascorbic acid and β-glycerophosphate
Description: Rat dental pulp stromal cells were again cultured under 3 different conditions: (1) DMEM alone (undifferentiated); (2) DMEM+β-glycerophosphate+ascorbic acid (differentiated−Dex); and (3) DMEM+β-glycerophosphate+ascorbic acid+dexamethasone (differentiated+Dex). The differentiation of the cells under these different culture conditions was then confirmed by an RT-PCR to assay for genes which are induced during differentiation (osteopontin and osteocalcin). Osteopontin (OPN), is an early osteoblastic marker and osteocalcin (OCN) a late stage marker.
RNA was extracted from the cells and PCR was again performed for OPN and OCN.

gingival cells = experiment: Bleaching agent on rat palatal gingiva: gingival cell growth; format: in vivo, rats; conditions: bleaching agent on palatal gingiva 5 hours, without or with NAC; cells grown 21 days
Method: For gingival cells, the bleaching agent was applied in the same order of experimental groups to the palatal gingiva for 5 hours, washed and excised and minced and treated with collagenase (0.01%) for 48 hours before the single cell suspensions were prepared by washing and resuspending in DMEM. The cells were allowed to grow to confluency for 21 days before photographs were taken. […] FIG. 46 provides a graphical representation of cell survival.

[5] = system: human dental pulp stromal cells; experiment: Extracted human teeth restored with composite resin with or without NAC: pulp cell growth; conditions: restorations left 5 hours; 14 days of incubation
Method: Three freshly extracted human teeth were obtained. Cavity preparations were performed on 2 freshly extracted third molars before restoration. One molar was left untouched and used as control. Specifically, tooth #1 was left untreated; tooth #2 was restored with composite resin alone; and tooth #3 was restored with composite resin after application of NAC. […] Single cell suspensions of control and each restored tooth were then cultured in the presence of β-glycerophosphate (10 mM) and ascorbic acid (50 μg/ml) and microscopic pictures taken after 14 days of incubation for growth.

[6] = NAC 20 mM pretreatment about 8 hours or simultaneous, overnight

For `C=C(C)C(=O)OCCO` [HEMA, hydroxyethyl methacrylate], the IL-6 ([1]; HEp2 +0.00082M HEMA, −/+NAC, PBMC +IL-2) was 371 pg/mL, the IL-6 ([1]; HEp2 +0.00082M HEMA, −/+NAC, PBMC −IL-2) was 204 pg/mL and the IL-6 ([1]; HEp2 +0.00164M HEMA, −/+NAC, PBMC +IL-2) was 264 pg/mL. For the same compound, the IL-6 ([1]; HEp2 +0.00164M HEMA, −/+NAC, PBMC −IL-2) was 208 pg/mL, the IL-6 ([1]; HEp2 +0.0082M HEMA, −/+NAC, PBMC +IL-2) was 243 pg/mL and the IL-6 ([1]; HEp2 +0.0082M HEMA, −/+NAC, PBMC −IL-2) was 192 pg/mL. The IL-6 ([1]; HEp2 +0.0164M HEMA, −/+NAC, PBMC +IL-2) was 262 pg/mL, the IL-6 ([1]; HEp2 +0.0164M HEMA, −/+NAC, PBMC −IL-2) was 191 pg/mL and the “UCLA-2 (VEFG secretion)” value ([2]; HEMA 0.00164M, alone or with NAC) was 3258.8 pg/mL. For the same compound, the “UCLA-2 (VEFG secretion)” value ([2]; HEMA 0.0082M, alone or with NAC) was 319.6 pg/mL, the “UCLA-2 (VEFG secretion)” value ([2]; HEMA 0.0164M, alone or with NAC) was 180.2 pg/mL and the “HEMA-mediated cell death and cytotoxicity (FITC-Annexin V/PI)” value (RAW 264.7 cells; HEMA about 18 hours) was “detected at millimole to micromole concentrations”. The “HEMA-mediated cell death and cytotoxicity (FITC-Annexin V/PI)” value (THP-1 cells; HEMA about 18 hours) was “detected at millimole to micromole concentrations”, the “mitochondrial membrane potential (Δψm)” value (Jurkat cells) was “decrease in mitochondrial membrane potential” and the “full length caspases 9 and 3 levels” value (caspases 9 and 3) was “diminishes full length caspases 9 and 3 levels”. For the same compound, the “cells remained both PI and Annexin V negative” value (PBMCs) was “less than 50%”, the “increase in active caspase 3 staining compared to the CDDP treated cells” value (active caspase 3) was “about 2 fold” and the “active caspase 3 staining” value (active caspase 3; CDDP) was 42%.

With `CC(=O)N[C@@H](CS)C(=O)O` [NAC, N-acetyl-cysteine] the IL-6 ([1]; HEp2 −HEMA (+NAC), PBMC +IL-2) was 1835 pg/mL, the IL-6 ([1]; HEp2 −HEMA (+NAC), PBMC −IL-2) was 880 pg/mL and the “UCLA-2 (VEFG secretion)” value ([2]; NAC alone, no HEMA) was 2831.9 pg/mL. For the same compound, the “inhibition of HEMA-mediated cell death (Sub Go/G1, PI staining)” value (RAW 264.7 cells; [6]) was “inhibited HEMA-mediated cell death”, the “inhibition of HEMA-mediated cell death (Sub Go/G1, PI staining)” value (THP-1 cells; [6]) was “inhibited HEMA-mediated cell death” and the “HEMA-mediated decrease in ALP” value [3] was “significantly prevented”. The “mitochondrial membrane potential (Δψm)” value (Jurkat cells) was “restored mitochondrial membrane potential”, the “full length caspases 9 and 3 levels” value (caspases 9 and 3) was “inhibits HEMA-mediated decrease in caspases 9 and 3” and the “differentiation markers OPN and OCN” value [4] was “express higher levels of OPN and OCN”. For the same compound, the gingival cell death (gingival cells) was “ameliorated” and the “growth of pulp cells” value [5] was “growth and expansion of the cells resulted”.
